From patent US20230068010A1, “FORMULATION OF INSECTICIDAL MIXTURES COMPRISING GLYCOL ETHER SOLVENTS” (Bayer Aktiengesellschaft, priority 2019, published 2023)

Assay: Cuticle penetration test
Type: in vitro ADME, apple tree
Excerpt: This test measures the penetration of active ingredients through enzymatically isolated cuticles of apple tree leaves.
Leaves that have been cut off apple trees in the developed state and isolated by the method described in Schönherr and Riederer (Schönherr, J., Riederer, M. (1986)) are used. Only the cuticles of the top sides of the leaves that are free of stomata and hair are used further.
For membrane transport studies, the cuticular membranes thus obtained are placed into stainless steel diffusion cells (=transport chambers). For this purpose, the cuticles are placed with tweezers onto the middle of the silicone grease-smeared edges of the diffusion cells and sealed with a likewise greased ring. The arrangement is chosen such that the morphological outside of the cuticles is directed outward, i.e. toward the air, while the original inside faces the inside of the diffusion cell. The diffusion cells are filled with water or with a mixture of water and solvent and buffered to the physiologically relevant pH of 5.5. The medium in the diffusion cells is supposed to simulate the apoplast, i.e. the natural absorption medium within the leaf. This method is of good suitability for systemic and mechanistic studies with the aim of understanding the effect of the formulations, adjuvants and solvents on penetration of the crop protection compositions.
The active ingredient concentration corresponds to the field application rate customary in practice. For preparation of the spray liquor the corresponding ingredients in the given amounts are given into tap water and homogenized by mixing.
After the spray liquors have been applied, the water is allowed to evaporate in each case, then the chambers are inverted and they are placed into thermostated tanks, wherein air at a defined air humidity and temperature is blown onto the outside of the cuticles in each case. The penetration that sets in therefore takes place at a relative air humidity of 56% and a set temperature of 25° C. At regular intervals, an autosampler is used to take samples and the content of penetrated active ingredient is measured by means of HPLC. The numbers reported are average values from 5 to 10 individual measurements in each case.

In the case of O=C1C=C(N(Cc2ccc(Cl)nc2)CC(F)F)CO1 [Flupyradifurone], the “Penetration after 24 h” value (entry 1: spray solution 0.1 g/L Compd I-2 + 0.5 g/L flupyradifurone, no additives, 25° C., 56% r.h.) is reported as 5.1%, the “Penetration after 24 h” value (entry 1: spray solution 0.1 g/L Compd I-2 + 0.5 g/L flupyradifurone, no additives, 25° C., 56% r.h., listed as flupyradifurone) is reported as “barely any, if any, cuticle penetration” and the “Penetration after 24 h” value (entry 2: 0.1 g/L Compd I-2 + 0.5 g/L flupyradifurone + DAHP 1.6 g/L, 25° C., 56% r.h.) is reported as 29.2%. For the same compound, the “Penetration after 24 h” value (entry 3: 0.1 g/L Compd I-2 + 0.5 g/L flupyradifurone + Antarox B/848 1.3 g/L, 25° C., 56% r.h.) was 73%, the “Penetration after 24 h” value (entry 4: 0.1 g/L Compd I-2 + 0.5 g/L flupyradifurone + Antarox B/848 1.3 + DAHP 1.6 g/L, 25° C., 56% r.h.) was 82.8% and the “Penetration after 24 h” value (entry 5: as entry 4 + 1.8 g/L Propylenglycolmonomethylether (B) + 1.8 g/L Propylenglycol (C)) was 87.2%. For the same compound, the “Penetration after 24 h” value (entry 6: as entry 4 + 1.8 g/L Propylenglycolmonomethylether (B) + 1.8 g/L Dipropylenglycol (D)) was 100%, the “Penetration after 24 h” value (entry 7: as entry 4 + 2.1 g/L Dipropylenglycolmonomethylether (A) + 1.4 g/L Propylenglycolmonomethylether (B)) was 100% and the “Penetration after 24 h” value (entry 8: as entry 4 + 2.5 g/L Dipropylenglycolmonomethylether (A) + 1.2 g/L Propylenglycol (C)) was 95%.
